Results as given in patent publication US20120157548A1, “USE OF CYCLOALIPHATIC DIOLS AS BIOCIDES” (BASF SE, priority 2009, published 2012).

Columns and labels:
microorganisms = settings: as stated for the comparison substances; cited from earlier work
P. vulgaris NCIMB 4175 = assay: Biocide test, MIC in tryptone soy broth; assay type: cell-based; settings: 30° C., 48 hours; for MIC value, from: lower limit of MIC range; for MIC value, to: upper limit of MIC range
Procedure: (§1) For this, in each case a 40 percent strength by weight solution of a diol in propylene glycol was prepared at 60° C.
(§2) This solution was diluted with a double-strength soy solution (double-strength tryptone soy broth) as nutrient medium in the volume ratio 1:1. Further dilution with soy solution produced solutions with the following concentrations:
(§3) The following microorganisms were used to test the biocidal effect against various bacteria and fungi:
(§4) Pure soy solution was used as negative control. The positive control used was a solution of 5 ml of soy solution which has been treated with 0.1 ml of the respective microorganism. The test solutions consisted of 5 ml of the above-described soy solutions of the diols in the particular concentration which have been mixed with 0.1 ml of the respective microorganism.
(§5) The samples and controls were incubated in the case of the bacteria at 30° C. for 48 hours, and in the case of fungi over 5 days at 25° C.
(§6) In each case, the MIC (Minimum Inhibitory Concentration) value was determined. This value indicates the minimum concentration above which the growth of the microorganisms was visibly hindered compared to the corresponding sample without addition of the diol.
(§7) The lower the MIC value, the greater the biocidal effect.
(§8) For example, this was evident from the occurrence of clouding or visible growth of the microorganism.
(§9) The MIC value stated is a range between the next higher concentration of a positive test and the same and/or lower concentration of a first negative test.

C. albicans NCPF 3179 = assay: Biocide test, MIC in tryptone soy broth; assay type: cell-based; settings: 25° C., 5 days; for MIC value, from: lower limit of MIC range; for MIC value, to: upper limit of MIC range
Procedure: as §1, §2, §3, §4, §5, §6, §7, §8, §9

E. coli NCIMB 8545 = assay: Biocide test, MIC in tryptone soy broth; assay type: cell-based; settings: 30° C., 48 hours; for MIC value, from: lower limit of MIC range; for MIC value, to: upper limit of MIC range
Procedure: as §1, §2, §3, §4, §5, §6, §7, §8, §9

S. aureus NCIMB 9578 = assay: Biocide test, MIC in tryptone soy broth; assay type: cell-based; settings: 30° C., 48 hours; for MIC value, from: lower limit of MIC range; for MIC value, to: upper limit of MIC range
Procedure: as §1, §2, §3, §4, §5, §6, §7, §8, §9

A. niger IMI 149007 = assay: Biocide test, MIC in tryptone soy broth; assay type: cell-based; settings: 25° C., 5 days; for MIC value, from: lower limit of MIC range; for MIC value, to: upper limit of MIC range
Procedure: as §1, §2, §3, §4, §5, §6, §7, §8, §9

[1] = tested on: P. aeruginosa NCIMB 10421; assay: Biocide test, MIC in tryptone soy broth; assay type: cell-based; settings: 30° C., 48 hours; for MIC value, from: lower limit of MIC range; for MIC value, to: upper limit of MIC range
Procedure: as §1, §2, §3
P. aeruginosa NCIMB 10421
as §4, §5, §6, §7, §8, §9

[2] = tested on: series of tested microorganisms; assay: Biocide test, highest measured MIC from the series of tested microorganisms; assay type: cell-based; settings: highest measured MIC of the six microorganisms; for Maximum MIC value, from: lower limit of range; for Maximum MIC value, to: upper limit of range
Procedure: as §3, §6, §9
In the last line of each of the tables below, a “maximum” value is listed. This value indicates the highest measured MIC value in each case from the series of tested microorganisms.

Compound: CCCC(O)CO (centres unmarked) [1,2-Pentanediol]
- biocidal effect (microorganisms): high biocidal effect
- MIC value, from (P. vulgaris NCIMB 4175): >25 000 ppm of diol
- MIC value, to (P. vulgaris NCIMB 4175): ≦50 000 ppm of diol
- MIC value, from (C. albicans NCPF 3179): >25 000 ppm of diol
- MIC value, to (C. albicans NCPF 3179): ≦50 000 ppm of diol
- MIC value, from (E. coli NCIMB 8545): >25 000 ppm of diol
- MIC value, to (E. coli NCIMB 8545): ≦50 000 ppm of diol
- MIC value, from (S. aureus NCIMB 9578): >25 000 ppm of diol
- MIC value, to (S. aureus NCIMB 9578): ≦50 000 ppm of diol
- MIC value, from (A. niger IMI 149007): >12 500 ppm of diol
- MIC value, to (A. niger IMI 149007): ≦25 000 ppm of diol
- MIC value, from [1]: >12 500 ppm of diol
- MIC value, to [1]: ≦25 000 ppm of diol
- Maximum MIC value, from [2]: >25 000 ppm of diol
- Maximum MIC value, to [2]: ≦50 000 ppm of diol

Compound: CC(O)CC(C)O (centres unmarked) [2,4-Pentanediol]
- biocidal effect (microorganisms): low biocidal effect
- MIC value, from (P. vulgaris NCIMB 4175): >50 000 ppm of diol
- MIC value, to (P. vulgaris NCIMB 4175): ≦100 000 ppm of diol
- MIC value, from (C. albicans NCPF 3179): >50 000 ppm of diol
- MIC value, to (C. albicans NCPF 3179): ≦100 000 ppm of diol
- MIC value, from (E. coli NCIMB 8545): >50 000 ppm of diol
- MIC value, to (E. coli NCIMB 8545): ≦100 000 ppm of diol
- MIC value, from (S. aureus NCIMB 9578): >50 000 ppm of diol
- MIC value, to (S. aureus NCIMB 9578): ≦100 000 ppm of diol
- MIC value, from (A. niger IMI 149007): >200 000 ppm of diol
- MIC value, to (A. niger IMI 149007): ≦400 000 ppm of diol
- MIC value, from [1]: >50 000 ppm of diol
- MIC value, to [1]: ≦100 000 ppm of diol
- Maximum MIC value, from [2]: >200 000 ppm of diol
- Maximum MIC value, to [2]: ≦400 000 ppm of diol

Compound: CC(O)CO (centres unmarked) [Propylene Glycol]
- MIC value, from (P. vulgaris NCIMB 4175): >100 000 ppm of diol
- MIC value, to (P. vulgaris NCIMB 4175): ≦200 000 ppm of diol
- MIC value, from (C. albicans NCPF 3179): >200 000 ppm of diol
- MIC value, to (C. albicans NCPF 3179): ≦400 000 ppm of diol
- MIC value, from (E. coli NCIMB 8545): >200 000 ppm of diol
- MIC value, to (E. coli NCIMB 8545): ≦400 000 ppm of diol
- MIC value, from (S. aureus NCIMB 9578): >200 000 ppm of diol
- MIC value, to (S. aureus NCIMB 9578): ≦400 000 ppm of diol
- MIC value, from (A. niger IMI 149007): >200 000 ppm of diol
- MIC value, to (A. niger IMI 149007): ≦400 000 ppm of diol
- MIC value, from [1]: >100 000 ppm of diol
- MIC value, to [1]: ≦200 000 ppm of diol
- Maximum MIC value, from [2]: >200 000 ppm of diol
- Maximum MIC value, to [2]: ≦400 000 ppm of diol

Compound: Hydroxymethylbicyclo[2.2.1]hept-2-ylmethanol isomers [2,5-2,6-DMNB]
- MIC value, from (P. vulgaris NCIMB 4175): >6 250 ppm of diol
- MIC value, to (P. vulgaris NCIMB 4175): ≦12 500 ppm of diol
- MIC value, from (C. albicans NCPF 3179): >50 000 ppm of diol
- MIC value, to (C. albicans NCPF 3179): ≦100 000 ppm of diol
- MIC value, from (E. coli NCIMB 8545): >6 250 ppm of diol
- MIC value, to (E. coli NCIMB 8545): ≦12 500 ppm of diol
- MIC value, from (S. aureus NCIMB 9578): >6 250 ppm of diol
- MIC value, to (S. aureus NCIMB 9578): ≦12 500 ppm of diol
- MIC value, from (A. niger IMI 149007): >50 000 ppm of diol
- MIC value, to (A. niger IMI 149007): ≦100 000 ppm of diol
- MIC value, from [1]: >6 250 ppm of diol
- MIC value, to [1]: ≦12 500 ppm of diol
- Maximum MIC value, from [2]: >50 000 ppm of diol
- Maximum MIC value, to [2]: ≦100 000 ppm of diol

Compound: Hydroxymethylbicyclo[2.2.1]hept-2-ylpropan-1-ol isomers [ENB-Diol]
- MIC value, from (P. vulgaris NCIMB 4175): >3 125 ppm of diol
- MIC value, to (P. vulgaris NCIMB 4175): ≦6 250 ppm of diol
- MIC value, from (C. albicans NCPF 3179): >12 500 ppm of diol
- MIC value, to (C. albicans NCPF 3179): ≦25 000 ppm of diol
- MIC value, from (E. coli NCIMB 8545): >3 125 ppm of diol
- MIC value, to (E. coli NCIMB 8545): ≦6 250 ppm of diol
- MIC value, from (S. aureus NCIMB 9578): >3 125 ppm of diol
- MIC value, to (S. aureus NCIMB 9578): ≦6 250 ppm of diol
- MIC value, from (A. niger IMI 149007): >12 500 ppm of diol
- MIC value, to (A. niger IMI 149007): ≦25 000 ppm of diol
- MIC value, from [1]: >50 000 ppm of diol
- MIC value, to [1]: ≦100 000 ppm of diol
- Maximum MIC value, from [2]: >50 000 ppm of diol
- Maximum MIC value, to [2]: ≦100 000 ppm of diol

Compound: Hydroxymethylcyclohexylpropan-1-ol isomers [CHA-diol]
- MIC value, from (P. vulgaris NCIMB 4175): >3 125 ppm of diol
- MIC value, to (P. vulgaris NCIMB 4175): ≦6 250 ppm of diol
- MIC value, from (C. albicans NCPF 3179): >6 250 ppm of diol
- MIC value, to (C. albicans NCPF 3179): ≦12 500 ppm of diol
- MIC value, from (E. coli NCIMB 8545): >3 125 ppm of diol
- MIC value, to (E. coli NCIMB 8545): ≦6 250 ppm of diol
- MIC value, from (S. aureus NCIMB 9578): >6 250 ppm of diol
- MIC value, to (S. aureus NCIMB 9578): ≦12 500 ppm of diol
- MIC value, from (A. niger IMI 149007): >200 000 ppm of diol
- MIC value, to (A. niger IMI 149007): ≦400 000 ppm of diol
- MIC value, from [1]: >50 000 ppm of diol
- MIC value, to [1]: ≦100 000 ppm of diol
- Maximum MIC value, from [2]: >200 000 ppm of diol
- Maximum MIC value, to [2]: ≦400 000 ppm of diol
